Measurements from ChEMBL document CHEMBL1131643, “Synthesis and 5 alpha-reductase inhibitory activities of benzofuran derivatives with a carbamoyl group” (Bioorg Med Chem Lett, 1998).

What was measured:
[1] = target: T1, 3-oxo-5-alpha-steroid 4-dehydrogenase 2 (Homo sapiens, UniProt P31213); assay: In vitro inhibitory activity against human Steroid 5-alpha-reductase type 2 in COS-1 cells was determined; format: cell-based
T1 sequence (P31213 whole entry): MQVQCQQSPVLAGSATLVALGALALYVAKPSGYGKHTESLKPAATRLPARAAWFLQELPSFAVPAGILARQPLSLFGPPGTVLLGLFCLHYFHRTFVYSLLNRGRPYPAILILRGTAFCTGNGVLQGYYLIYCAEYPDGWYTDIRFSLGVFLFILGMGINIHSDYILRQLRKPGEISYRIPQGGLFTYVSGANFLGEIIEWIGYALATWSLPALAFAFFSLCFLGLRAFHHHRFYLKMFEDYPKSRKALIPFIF

[2] = target: T2, 3-oxo-5-alpha-steroid 4-dehydrogenase 1 (Homo sapiens, UniProt P18405); assay: In vitro inhibitory activity against human Steroid 5-alpha-reductase type 1 in COS-1 cells was determined; format: cell-based
T2 sequence (P18405 whole entry): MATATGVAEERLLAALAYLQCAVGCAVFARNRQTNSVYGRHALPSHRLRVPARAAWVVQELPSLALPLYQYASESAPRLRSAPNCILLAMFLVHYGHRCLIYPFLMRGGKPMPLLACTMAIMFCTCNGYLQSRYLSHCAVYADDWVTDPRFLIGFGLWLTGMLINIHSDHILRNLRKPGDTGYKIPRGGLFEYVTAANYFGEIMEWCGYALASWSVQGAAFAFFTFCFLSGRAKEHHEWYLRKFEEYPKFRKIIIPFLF

[3] = target: T3, Steroid 5-alpha-reductase (Rattus norvegicus, UniProt P24008+P31214); assay: In vitro inhibitory activity against rat testosterone 5 alpha reductase was determined; format: protein assay
T3 sequence (P24008 whole entry): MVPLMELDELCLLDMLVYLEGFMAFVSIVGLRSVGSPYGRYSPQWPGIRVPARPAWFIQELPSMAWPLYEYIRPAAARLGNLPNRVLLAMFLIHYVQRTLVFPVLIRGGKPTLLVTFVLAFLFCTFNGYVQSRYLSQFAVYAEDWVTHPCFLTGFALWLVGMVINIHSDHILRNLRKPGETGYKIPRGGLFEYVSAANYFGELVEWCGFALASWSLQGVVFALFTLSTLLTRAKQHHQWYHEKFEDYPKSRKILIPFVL
T3 sequence (P31214 whole entry): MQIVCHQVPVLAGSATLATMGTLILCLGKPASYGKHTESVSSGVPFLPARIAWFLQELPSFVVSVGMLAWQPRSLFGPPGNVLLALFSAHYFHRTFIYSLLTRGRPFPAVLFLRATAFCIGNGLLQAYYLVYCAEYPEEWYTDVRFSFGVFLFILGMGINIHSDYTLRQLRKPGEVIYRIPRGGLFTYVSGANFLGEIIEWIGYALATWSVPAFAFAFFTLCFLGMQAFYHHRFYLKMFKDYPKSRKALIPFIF

## O=C(O)CCCOc1ccccc1-c1cc2ccc(C(=O)NC(c3ccccc3)c3ccccc3)cc2o1
[1]
  IC50: 270 nM
[2]
  IC50: 62 nM
[3]
  IC50: 28.5 nM

## O=C(O)CCCOc1ccccc1-c1cc2ccc(C(=O)NC(c3ccc(F)cc3)c3ccc(F)cc3)cc2o1
[1]
  IC50: 340 nM
[2]
  IC50: 50 nM
[3]
  IC50: 37.9 nM

## COc1ccc(C(NC(=O)c2ccc3cc(-c4ccccc4OCCCC(=O)O)oc3c2)c2ccc(OC)cc2)cc1
[1]
  IC50: 930 nM
[2]
  IC50: 130 nM
[3]
  IC50: 35.5 nM

## O=C(O)CCCOc1ccccc1-c1cc2cc(C(=O)NC(c3ccccc3)c3ccccc3)ccc2o1
[1]
  IC50: > 100000 nM
[2]
  IC50: 310 nM
[3]
  IC50: 155 nM

## CC(C)Cc1ccc(C(Nc2cccc(C(=O)c3cn(CCCC(=O)O)c4ccccc34)c2)c2ccc(CC(C)C)cc2)cc1
[1]
  IC50: 11 nM
[2]
  IC50: 3 nM
[3]
  IC50: 118 nM

## COc1ccc(C(NC(=O)c2ccc3oc(-c4ccccc4OCCCC(=O)O)cc3c2)c2ccc(OC)cc2)cc1
[3]
  IC50: 26.3 nM

## O=C(O)CCCOc1ccccc1-c1cc2cc(C(=O)NC(c3ccc(F)cc3)c3ccc(F)cc3)ccc2o1
[3]
  IC50: 279 nM
